Assay results from ChEMBL document CHEMBL6182910, “Design, Synthesis, and Biological Evaluation of 4-(Difluoromethyl)-1H-imidazole-5-carboxylic Acids/4-(3-Cyanophenoxy)pyrimidine-5-carboxylic Acids as P2Y1 Receptor Antagonists for Ischemic Stroke Treatment” (J Med Chem, 2025).
The source made the active and inactive calls. The calls are words filed in the database; no cut-off is given here.

Assays:
[1] = Antioxidant activity assessed as DPPH radical scavenging activity at 60 uM incubated for 30 mins under dark condition by absorbance based method; type: functional
CYP2C9 = CYP2C9 (Homo sapiens, UniProt P11712); test: Inhibition of CYP2C9 in human liver microsomes using tolbutamide as substrate at 10 uM preincubated for 5 min followed by NADPH addition measured after 120 mins by LC-MS/MS analysis relative to control; type: ADME, Microsome; settings: probe tolbutamide, time 125 min
[2] = Half life male Sprague-Dawley rat at 10 mg/kg, po measured up to 24 hrs by LC-MS/MS analysis; type: ADME, organism-based; settings: in vivo
[3] = Tmax male Sprague-Dawley rat at 10 mg/kg, po measured up to 24 hrs by LC-MS/MS analysis; type: ADME, organism-based; settings: in vivo
[4] = MRT (0 to infinity) male Sprague-Dawley rat at 10 mg/kg, po measured up to 24 hrs by LC-MS/MS analysis; type: ADME, organism-based; settings: in vivo
[5] = Apparent volume of distribution male Sprague-Dawley rat at 10 mg/kg, po measured up to 24 hrs by LC-MS/MS analysis; type: ADME, organism-based; settings: in vivo
[6] = Cmax male Sprague-Dawley rat at 10 mg/kg, iv measured up to 24 hrs by LC-MS/MS analysis; type: ADME, organism-based; settings: in vivo
[7] = Ratio of AUC in brain to plasma of male Sprague-Dawley rat at 10 mg/kg, iv measured for 0.083 to 24 hrs by LC-MS/MS analysis; type: ADME, organism-based; settings: brain and plasma, time 0.083-24 hrs, read-out: Ratio AUC
Rattus norvegicus [8] = test: Neuroprotective activity in MCAO-induced brain damage Sprague-Dawley rat model assessed as reduction in brain water content at 2.5 to 10 mg/kg, iv administered immediately after arterial occlusion measured after 24 hrs; type: functional, organism-based; settings: dose 2.5-10 mg/kg
Rattus norvegicus [9] = test: Neuroprotective activity in MCAO-induced brain damage Sprague-Dawley rat model assessed as reduction in neurological deficit scores at 10 mg/kg, iv administered immediately after arterial occlusion measured after 24 hrs by Longa's method; type: functional, organism-based
Rattus norvegicus [10] = test: Neuroprotective activity in MCAO-induced brain damage Sprague-Dawley rat model assessed as reduction in brain infarction size at 2.5 mg/kg, iv administered immediately after arterial occlusion measured after 24 hrs by TTC staining based analysis relative to control; type: functional; parameters: scale not given: the % may be the effect or the level left
Rattus norvegicus [11] = test: Neuroprotective activity in MCAO-induced brain damage Sprague-Dawley rat model assessed as brain infarction size at 5 mg/kg, iv administered immediately after arterial occlusion measured after 24 hrs by TTC staining based analysis (reference value: 43.1 %); type: functional
Rattus norvegicus [12] = test: Neuroprotective activity in MCAO-induced brain damage Sprague-Dawley rat model assessed as plasma MDA level at 2.5 to 10 mg/kg, iv administered immediately after arterial occlusion measured after 24 hrs (reference value: 7.93 nmol/ml); type: functional; settings: dose 2.5-10 mg/kg
Rattus norvegicus [13] = test: Neuroprotective activity in MCAO-induced brain damage Sprague-Dawley rat model assessed as tightly arranged hippocampal neurons at 2.5 to 10 mg/kg, iv administered immediately after arterial occlusion measured after 24 hrs by H and E staining based analysis; type: functional, organism-based; settings: dose 2.5-10 mg/kg

Chain of CYP2C9 (P11712 whole entry): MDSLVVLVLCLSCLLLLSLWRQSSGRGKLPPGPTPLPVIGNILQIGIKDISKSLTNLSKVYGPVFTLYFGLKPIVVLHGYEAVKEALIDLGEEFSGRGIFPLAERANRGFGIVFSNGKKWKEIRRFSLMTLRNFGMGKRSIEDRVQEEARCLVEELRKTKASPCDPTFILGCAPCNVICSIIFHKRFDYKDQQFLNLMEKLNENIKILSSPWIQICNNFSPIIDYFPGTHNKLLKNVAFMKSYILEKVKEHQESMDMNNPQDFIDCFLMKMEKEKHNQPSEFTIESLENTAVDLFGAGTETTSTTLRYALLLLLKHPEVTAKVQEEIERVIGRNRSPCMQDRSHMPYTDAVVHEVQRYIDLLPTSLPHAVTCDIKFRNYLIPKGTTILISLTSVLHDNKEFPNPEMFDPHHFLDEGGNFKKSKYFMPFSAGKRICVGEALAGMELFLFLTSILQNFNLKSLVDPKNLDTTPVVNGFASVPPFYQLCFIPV

Structure (SMILES) | Activity [1] [%] | inhibition at 2 h, 10 µM (CYP2C9) [%] | t1/2 [2] [min] | Tmax ([3]; po, 10 mg/kg, 24 h) [min] | MRT inf [4] [min] | Vz [5] [L/kg] | Cmax [6] [ng/mL] | Kp [7] | Activity (Rattus norvegicus [8]) | Activity (Rattus norvegicus [9]) | Activity (Rattus norvegicus [10]) [%] | Activity (Rattus norvegicus [11]) [%] | Activity (Rattus norvegicus [12]) [nmol/mL] | Activity (Rattus norvegicus [13]) | Tmax ([3]; male, Sprague-Dawley, read-out: Tmax) [min]
N#Cc1cccc(Oc2nc(-c3cccc(C#N)c3)ncc2C(=O)O)c1 | 6.15 | 26.3 | 15.7 | 6.12 | 18.4 | 7.668 | 48200 | 0.25 | Active; Water Content Did Not Return To Blank Level; At 10 Mg/Kg, Compound Showed Comparable Effect To Bptu, Edaravone, Hnw001 | Active; Activity Was Less Than Bptu | 32 | 21.3 | 4.37 | Active | –
N#Cc1cccc(-c2nc(C(F)F)c(C(=O)O)n2OCc2csc(N)n2)c1 | 4.29 | 9.7 | – | – | – | – | 44300 | 0.073 | Active; Water Content Did Not Return To Blank Level | Active; Activity Was Less Than Bptu | 40.6 | 23.3 | 4.37 | Active | 10
